In the supplement of paper PMC12592484:

Columns and labels:
Experiment in all cases: drug sensitivity score (DSS2, normalised partial AUC of dose-response, 72 h CellTiter-Glo viability) (DSS (dimensionless)); higher = more sensitive (stronger growth inhibition / cytotoxicity); extreme values may be limits of the assay
[1] = system: 22Rv1
Procedure, shortened: (§1)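 Five doses spanning a 10,000-fold range were pre-dispensed into 384-well plates, into which low-passage primary prostate cancer-associated fibroblasts, PF179T, WPMY-1, LNCaP and 22Rv1 cells were seeded. After 72 h, CellTiter-Glo 2.0 luminescence measured viability, scaled to vehicle and positive-control wells. Higher values of the drug sensitivity score, a BREEZE-computed partial area under the fitted logistic dose–response curve divided by the log of the upper asymptote, mean greater sensitivity.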

[2] = system: CAF#1 (primary prostate cancer-associated fibroblasts of myCAF-like type)
Procedure, shortened: as §1

[3] = system: CAF#2 (primary prostate cancer-associated fibroblasts of iCAF-like type)
Procedure, shortened: as §1

[4] = system: CAF#3 (primary prostate cancer-associated fibroblasts of myCAF-like type)
Procedure, shortened: as §1

[5] = system: CAF#4 (primary prostate cancer-associated fibroblasts of iCAF-like type)
Procedure, shortened: as §1

[6] = system: CAF#5 (primary prostate cancer-associated fibroblasts of myCAF-like type)
Procedure, shortened: as §1

[7] = system: CAF#6 (primary prostate cancer-associated fibroblasts of iCAF-like type)
Procedure, shortened: as §1

[8] = system: CAF#7 (primary prostate cancer-associated fibroblasts of myCAF-like type)
Procedure, shortened: as §1

[9] = system: LNCAP
Procedure, shortened: as §1

[10] = system: PF179T
Procedure, shortened: as §1

[11] = system: WPMY-1
Procedure, shortened: as §1

Compound | drug sensitivity score [1] | drug sensitivity score [2] | drug sensitivity score [3] | drug sensitivity score [4] | drug sensitivity score [5] | drug sensitivity score [6] | drug sensitivity score [7] | drug sensitivity score [8] | drug sensitivity score [9] | drug sensitivity score [10] | drug sensitivity score [11]
COc1ccc(C[C@H](NC(=O)[C@H](C)NC(=O)CN2CCOCC2)C(=O)N[C@@H](Cc2ccccc2)C(=O)C2(C)CO2)cc1 (stereo in doubt) [ONX-0914] (tested concentration range 1-10000 nM) | 18 | 14 | 16 | 15.5 | 10.3 | 18.3 | 15 | 15.6 | 19.3 | 14.8 | 23.4
Cc1ccc(C(=O)N(CCCN)[C@@H](c2oc3cc(Cl)ccc3c(=O)c2Cc2ccccc2)C(C)C)cc1 (tested concentration range 0-100 nM) | 3.6 | 1.6 | 7.1 | 0.4 | 2.5 | 4.3 | 1.6 | 1.3 | 19.3 | 2.9 | 4
CNS(=O)(=O)Nc1nccc(Cc2c(C)c3ccc(Oc4ncccn4)cc3oc2=O)c1F (tested concentration range 0.1-1000 nM) | 0.2 | 0 | 0 | 0 | 0 | 0 | 0 | 0 | 1.1 | 0 | 0
C[C@@H](Oc1ccc2[nH]nc(/C=C/c3cnn(CCO)c3)c2c1)c1c(Cl)cncc1Cl (tested concentration range 0.1-1000 nM) | 2.9 | 9.7 | 7.2 | 9.9 | 5.7 | 6.7 | 10.9 | 18.7 | 2.5 | 8.9 | 8
Cc1c(-c2c(-c3ccc(F)o3)sc3ncnc(O[C@H](Cc4ccccc4OCc4ccnn4CC(F)(F)F)C(=O)O)c23)ccc(OCCN2CCN(C)CC2)c1Cl (tested concentration range 0.1-1000 nM) | 0.7 | 0 | 0 | 0 | 0 | 0 | 0 | 0 | 0 | 0 | 0
Cc1c(-c2ccc(N3CCc4cccc(C(=O)Nc5nc6ccccc6s5)c4C3)nc2C(=O)O)cnn1CC12CC3CC(CC(C3)C1)C2 (tested concentration range 0.1-1000 nM) | 0 | 0 | 0 | 0 | 3.1 | 0 | 4.2 | 0.4 | 4.4 | 0 | 0
CO[C@@H](C)Cn1c(=O)n(C)c2cnc3ccc(-c4cncc(C(C)(C)O)c4)cc3c21 (tested concentration range 0.2-2500 nM) | 16.8 | 14.1 | 13.5 | 10.3 | 10.7 | 14.5 | 10.9 | 10.5 | 16.8 | 14.1 | 12
Cc1cccc(CC(=O)N2CCc3c2ccc(-c2cn(C)c4ncnc(N)c24)c3F)n1 (tested concentration range 0.2-2500 nM) | 0.1 | 0 | 0 | 0 | 0 | 0 | 0 | 0 | 0.7 | 0 | 0
Cc1ncc(Cl)cc1NCc1ccc(C(=O)N[C@@H](CC2CCCC2)C(=O)NC2CC2)s1 (tested concentration range 0.5-5000 nM) | 0 | 0 | 3 | 0.4 | 0.6 | 2.1 | 0 | 1.2 | 2 | 3.7 | 0
CC(C)Oc1ccc(C(=O)N[C@H](CNC(=O)CN(C)C)Cc2ccc(-c3cn4cccc([C@H](C)O)c4n3)cc2)cc1Cl (tested concentration range 1-10000 nM) | 10.9 | 1.4 | 9.8 | 2.5 | 5.5 | 3 | 3.2 | 2.4 | 19.1 | 9 | 24.5
CCc1cncnc1N1CCN(Cc2nc3ccc(C(F)(F)F)cc3[nH]2)CC1 (tested concentration range 1-10000 nM) | 2.9 | 1.8 | 2.4 | 7.6 | 1.1 | 1.6 | 0.5 | 0.9 | 4 | 0 | 1.7
CCn1c(-c2nonc2N)nc2c(C#CC(C)(C)O)ncc(OC[C@H]3CCCNC3)c21 (tested concentration range 1-10000 nM) | 5.4 | 3.8 | 3.3 | 0 | 1.2 | 1.6 | 0 | 0 | 25.7 | 1.9 | 0
CCn1c(-c2nonc2N)nc2cnc(Oc3cccc(NC(=O)c4ccc(OCCN5CCOCC5)cc4)c3)cc21 (tested concentration range 1-10000 nM) | 4.7 | 3.2 | 3.3 | 0.2 | 0.6 | 1.2 | 2.8 | 4.7 | 8.1 | 0.9 | 6.8
CN(C)CC#Cc1ccc(OCCCc2sc(N3CCc4cccc(C(=O)Nc5nc6ccccc6s5)c4C3)nc2C(=O)O)c(F)c1 (tested concentration range 1-10000 nM) | 0 | 2.7 | 2.3 | 0.2 | 14.4 | 3.2 | 5.6 | 4.1 | 6.1 | 0 | 1.4
CN1CCN(C2CCC(n3cc(-c4ccc(Oc5ccccc5)cc4)c4c(N)ncnc43)CC2)CC1 (centres undefined) (tested concentration range 1-10000 nM) | 9.1 | 12.2 | 14.6 | 11.2 | 13.6 | 11.5 | 11.7 | 16.6 | 8.3 | 9.3 | 10.1
CNc1nc(-c2ccc3c(N)n[nH]c3c2)cc(N2C[C@@H](C(=O)NC3CCCCC3)CC[C@H]2C)n1 (tested concentration range 1-10000 nM) | 6.4 | 4 | 1.1 | 6.6 | 2.4 | 5.8 | 4 | 3.8 | 7.5 | 0 | 1.4
CNc1ncc2cc(-c3cc(NC(=O)NCCC(C)(C)C)c(F)cc3C)c(C)nc2n1 (tested concentration range 1-10000 nM) | 8.5 | 7.4 | 11 | 1.6 | 9.2 | 7.2 | 6.3 | 8 | 10.4 | 6.7 | 5.6
COc1ccc(Cn2ccc3ccc(C(=O)NO)cc32)cc1 (tested concentration range 1-10000 nM) | 2.8 | 2.8 | 3.1 | 2.9 | 1.4 | 1.4 | 4.1 | 4 | 5.5 | 4.8 | 2.8
Cc1c(Cn2c(C)nc3c(C(=O)O)cc(N4CCOCC4)cc32)cccc1C(F)(F)F (tested concentration range 1-10000 nM) | 0 | 2.6 | 0.4 | 6.2 | 1.3 | 0.1 | 2.1 | 5.1 | 12.4 | 2.1 | 0
N#Cc1ccc(COC[C@H]2O[C@@H](n3c(NCc4ccc(Cl)c(Cl)c4)nc4c(N)ncnc43)[C@H](O)[C@@H]2O)cc1 (tested concentration range 1-10000 nM) | 6.9 | 3.7 | 5.7 | 0.6 | 5.7 | 4.7 | 1.8 | 4.5 | 5 | 4.4 | 1.9
Nc1nccc(-c2c(-c3ccc(F)cc3)ncn2C2CCCCC2)n1 (tested concentration range 1-10000 nM) | 6.1 | 0 | 0.6 | 2.1 | 0.1 | 0 | 0 | 0 | 4.6 | 0 | 0
Nc1ncnc2c1c(COc1cccc(Cl)c1)nn2C1CCOCC1 (tested concentration range 1-10000 nM) | 0 | 2.5 | 2.1 | 2.8 | 0 | 1.8 | 0.6 | 1 | 2.3 | 0 | 0
O=C(O)c1ccc(-c2c[nH]c3ncc(-c4ccccc4)cc23)cc1C1CCCC1 (tested concentration range 1-10000 nM) | 0 | 0 | 2.3 | 0 | 0 | 0.8 | 0 | 0 | 0 | 0.1 | 2.4
O=c1[nH]c(C2CCCN2)nc2c1oc1ccc(Cl)cc12 (centres undefined) (tested concentration range 1-10000 nM) | 0.6 | 0 | 0 | 1.6 | 0 | 0 | 0 | 0 | 2.7 | 0 | 3.3
CC1(C)OCCn2c1nc1c(N3CCOCC3)nc(-c3cnc(N)nc3)nc12 [Paxalisib] (tested concentration range 1-10000 nM) | 18.1 | 16 | – | – | 13 | 18.3 | – | – | 13.5 | – | –
